Test results reported in patent publication US8530521B2, “Nitrooxy cycloalkane derivatives” (Merck Sharp & Dohme Corp., priority 2008, dated 2013).

System: isolated rabbit thoracic aorta preparations
Assay: Vessel relaxation in isolated rabbit thoracic aorta rings precontracted with noradrenaline
Conditions: for EC50: Oryctolagus cuniculus

SMILES | Max. Relaxation (@ 1 μM) [%] | EC50 [µM] | Max. Relaxation (concentration not given) [%]
CO[C@H]1C[C@@H](C(=O)O)C[C@@H]1O[N+](=O)[O-] [Example 1, (+)-(1R,3S,4S)-3-methoxy-4-(nitrooxy)cyclopentanecarboxylic acid] | 37.47 | 126 | 
COC(=O)[C@@H]1CC[C@@H](O[N+](=O)[O-])[C@H](OC)C1 [Example 22, (1R,3R,4R)-methyl 3-methoxy-4-(nitrooxy)cyclohexanecarboxylate] |  | 6.3 ± 2 | 
COC(=O)[C@@H]1CC[C@@H](OC)[C@H](O[N+](=O)[O-])C1 [Example 24, (1R,3R,4R)-methyl 4-methoxy-3-(nitrooxy)cyclohexanecarboxylate] |  | 11.1 ± 4.5 | 
CC(=O)N[C@H](C(=O)O)C(C)(C)SN=O (racemic) [SNAP, S-nitroso-N-acetylpenicillamine, reference compound] |  |  | 97.3
COC(=O)[C@@H]1CC[C@H](OC)[C@@H](O[N+](=O)[O-])C1 [Example 21, (1R,3S,4S)-methyl 4-methoxy-3-(nitrooxy)cyclohexanecarboxylate] |  | 1 ± 0.2 | 
COC(=O)[C@@H]1CC[C@H](O[N+](=O)[O-])[C@@H](OC)C1 [Example 23, (1R,3S,4S)-methyl 3-methoxy-4-(nitrooxy)cyclohexanecarboxylate] |  | 3.5 ± 0.6 | 
